# Species on record: Rattus norvegicus
# Assay: DrugMatrix - Regimen: Daily Repeat
# Assay type: toxicity, organism-based, Sprague-Dawley
# Set-up: regimen Daily Repeat, gender Male, age 6-8 weeks
# Details: in vivo, sc, route subcutaneous, […]; for ABSOLUTE BASOPHIL / ABSOLUTE EOSINOPHIL / ABSOLUTE LYMPHOCYTE / ABSOLUTE MONOCYTE / ABSOLUTE SEGMENTED NEUTROPHIL / BASOPHIL / EOSINOPHIL / ERYTHROCYTE COUNT / HEMATOCRIT / HEMOGLOBIN / LEUKOCYTE COUNT / LYMPHOCYTE / MEAN CORPUSCULAR HEMOGLOBIN / MEAN CORPUSCULAR VOLUME / MONOCYTE / NEUTROPHIL / NUCLEATED RED BLOOD CELLS / PLATELET COUNT: tissue Blood; for ALANINE AMINOTRANSFERASE / ALBUMIN / ALKALINE PHOSPHATASE / ASPARTATE AMINOTRANSFERASE / BLOOD UREA NITROGEN / CARBON DIOXIDE / CHLORIDE / CHOLESTEROL / CREATINE PHOSPHOKINASE / CREATININE / GLUCOSE / LACTATE DEHYDROGENASE / LIPASE / PHOSPHORUS / POTASSIUM / SODIUM / TOTAL BILIRUBIN / TOTAL PROTEIN / URIC ACID: tissue Plasma
# [1] = 3 mg/kg, 72 h, dose level Low, time 3 day
# [2] = 3 mg/kg, 120 h, dose level Low, time 5 day
# [3] = 30 mg/kg, 72 h, dose level M2, time 3 day
# [4] = 30 mg/kg, 120 h, dose level M2, time 5 day
compound,measurement,setting,value
CC(C)(C)CC(C)(C)c1ccc(OCCOCC[N+](C)(C)Cc2ccccc2)cc1.[Cl-] [BENZETHONIUM CHLORIDE],ABSOLUTE BASOPHIL,[1],0 CELLS/uL
same,ABSOLUTE EOSINOPHIL,[1],41 CELLS/uL
same,ABSOLUTE LYMPHOCYTE,[1],15440.33 CELLS/uL
same,ABSOLUTE MONOCYTE,[1],415 CELLS/uL
same,ABSOLUTE SEGMENTED NEUTROPHIL,[1],1437 CELLS/uL
same,BASOPHIL,[1],0%
same,EOSINOPHIL,[1],0.33%
same,ERYTHROCYTE COUNT,[1],5.3 x10E6/uL
same,HEMATOCRIT,[1],33.43%
same,HEMOGLOBIN,[1],12.63 G/DL
same,LEUKOCYTE COUNT,[1],17.33 x10E3/uL
same,LYMPHOCYTE,[1],89.33%
same,MEAN CORPUSCULAR HEMOGLOBIN,[1],23.87 pg
same,MEAN CORPUSCULAR VOLUME,[1],63.13 fL
same,MONOCYTE,[1],2.33%
same,NEUTROPHIL,[1],8%
same,NUCLEATED RED BLOOD CELLS,[1],0 /100WBC
same,PLATELET COUNT,[1],1329.67 x10E3/uL
same,ALANINE AMINOTRANSFERASE,[1],45 u/L
same,ALBUMIN,[1],3.7 G/DL
same,ALKALINE PHOSPHATASE,[1],323.67 u/L
same,ASPARTATE AMINOTRANSFERASE,[1],74 u/L
same,BLOOD UREA NITROGEN,[1],15.67 mg/dL
same,CARBON DIOXIDE,[1],28 mmol/L
same,CHLORIDE,[1],101 MEQ/L
same,CHOLESTEROL,[1],83.33 mg/dL
same,CREATINE PHOSPHOKINASE,[1],130.67 u/L
same,CREATININE,[1],0.18 mg/dL
same,GLUCOSE,[1],149.33 mg/dL
same,LACTATE DEHYDROGENASE,[1],78.67 u/L
same,LIPASE,[1],8.67 u/L
same,PHOSPHORUS,[1],11.23 mg/dL
same,POTASSIUM,[1],6.78 MEQ/L
same,SODIUM,[1],142.67 MEQ/L
same,TOTAL BILIRUBIN,[1],0.23 mg/dL
same,TOTAL PROTEIN,[1],5.93 G/DL
same,URIC ACID,[1],1.53 mg/dL
same,ABSOLUTE BASOPHIL,[2],0 CELLS/uL
same,ABSOLUTE EOSINOPHIL,[2],149.33 CELLS/uL
same,ABSOLUTE LYMPHOCYTE,[2],16956.67 CELLS/uL
same,ABSOLUTE MONOCYTE,[2],380.67 CELLS/uL
same,ABSOLUTE SEGMENTED NEUTROPHIL,[2],2446.67 CELLS/uL
same,BASOPHIL,[2],0%
same,EOSINOPHIL,[2],0.67%
same,ERYTHROCYTE COUNT,[2],5.5 x10E6/uL
same,HEMATOCRIT,[2],34.13%
same,HEMOGLOBIN,[2],12.67 G/DL
same,LEUKOCYTE COUNT,[2],19.93 x10E3/uL
same,LYMPHOCYTE,[2],85.33%
same,MEAN CORPUSCULAR HEMOGLOBIN,[2],23 pg
same,MEAN CORPUSCULAR VOLUME,[2],62.03 fL
same,MONOCYTE,[2],2%
same,NEUTROPHIL,[2],12%
same,NUCLEATED RED BLOOD CELLS,[2],0 /100WBC
same,PLATELET COUNT,[2],1520.67 x10E3/uL
same,ALANINE AMINOTRANSFERASE,[2],63 u/L
same,ALBUMIN,[2],3.47 G/DL
same,ALKALINE PHOSPHATASE,[2],275 u/L
same,ASPARTATE AMINOTRANSFERASE,[2],71.67 u/L
same,BLOOD UREA NITROGEN,[2],14.67 mg/dL
same,CARBON DIOXIDE,[2],27.33 mmol/L
same,CHLORIDE,[2],103 MEQ/L
same,CHOLESTEROL,[2],70.67 mg/dL
same,CREATINE PHOSPHOKINASE,[2],560.33 u/L
same,CREATININE,[2],0.23 mg/dL
same,GLUCOSE,[2],152.67 mg/dL
same,LACTATE DEHYDROGENASE,[2],156.67 u/L
same,LIPASE,[2],10 u/L
same,PHOSPHORUS,[2],11.23 mg/dL
same,POTASSIUM,[2],7.21 MEQ/L
same,SODIUM,[2],144.55 MEQ/L
same,TOTAL BILIRUBIN,[2],0.17 mg/dL
same,TOTAL PROTEIN,[2],5.73 G/DL
same,URIC ACID,[2],1.53 mg/dL
same,ABSOLUTE BASOPHIL,[3],0 CELLS/uL
same,ABSOLUTE EOSINOPHIL,[3],0 CELLS/uL
same,ABSOLUTE LYMPHOCYTE,[3],10787.33 CELLS/uL
same,ABSOLUTE MONOCYTE,[3],579.67 CELLS/uL
same,ABSOLUTE SEGMENTED NEUTROPHIL,[3],1766.33 CELLS/uL
same,BASOPHIL,[3],0%
same,EOSINOPHIL,[3],0%
same,ERYTHROCYTE COUNT,[3],5.13 x10E6/uL
same,HEMATOCRIT,[3],31.77%
same,HEMOGLOBIN,[3],11.87 G/DL
same,LEUKOCYTE COUNT,[3],13.13 x10E3/uL
same,LYMPHOCYTE,[3],83%
same,MEAN CORPUSCULAR HEMOGLOBIN,[3],23.13 pg
same,MEAN CORPUSCULAR VOLUME,[3],61.93 fL
same,MONOCYTE,[3],4.33%
same,NEUTROPHIL,[3],12.67%
same,NUCLEATED RED BLOOD CELLS,[3],0 /100WBC
same,PLATELET COUNT,[3],981 x10E3/uL
same,ALANINE AMINOTRANSFERASE,[3],24.33 u/L
same,ALBUMIN,[3],2.63 G/DL
same,ALKALINE PHOSPHATASE,[3],269 u/L
same,ASPARTATE AMINOTRANSFERASE,[3],71.67 u/L
same,BLOOD UREA NITROGEN,[3],15.33 mg/dL
same,CARBON DIOXIDE,[3],21.67 mmol/L
same,CHLORIDE,[3],101 MEQ/L
same,CHOLESTEROL,[3],45 mg/dL
same,CREATINE PHOSPHOKINASE,[3],122.67 u/L
same,CREATININE,[3],0.15 mg/dL
same,GLUCOSE,[3],140.67 mg/dL
same,LACTATE DEHYDROGENASE,[3],116.67 u/L
same,LIPASE,[3],7 u/L
same,PHOSPHORUS,[3],11.27 mg/dL
same,POTASSIUM,[3],5.61 MEQ/L
same,SODIUM,[3],142.5 MEQ/L
same,TOTAL BILIRUBIN,[3],0.1 mg/dL
same,TOTAL PROTEIN,[3],5.93 G/DL
same,URIC ACID,[3],2.4 mg/dL
same,ABSOLUTE BASOPHIL,[4],0 CELLS/uL
same,ABSOLUTE EOSINOPHIL,[4],0 CELLS/uL
same,ABSOLUTE LYMPHOCYTE,[4],12245 CELLS/uL
same,ABSOLUTE MONOCYTE,[4],1299.67 CELLS/uL
same,ABSOLUTE SEGMENTED NEUTROPHIL,[4],8588.67 CELLS/uL
same,BASOPHIL,[4],0%
same,EOSINOPHIL,[4],0%
same,ERYTHROCYTE COUNT,[4],4.82 x10E6/uL
same,HEMATOCRIT,[4],29.43%
same,HEMOGLOBIN,[4],11.43 G/DL
same,LEUKOCYTE COUNT,[4],22.13 x10E3/uL
same,LYMPHOCYTE,[4],55%
same,MEAN CORPUSCULAR HEMOGLOBIN,[4],23.73 pg
same,MEAN CORPUSCULAR VOLUME,[4],61.07 fL
same,MONOCYTE,[4],6%
same,NEUTROPHIL,[4],39%
same,NUCLEATED RED BLOOD CELLS,[4],0 /100WBC
same,PLATELET COUNT,[4],1372 x10E3/uL
same,ALANINE AMINOTRANSFERASE,[4],31.67 u/L
same,ALBUMIN,[4],2.27 G/DL
same,ALKALINE PHOSPHATASE,[4],363.33 u/L
same,ASPARTATE AMINOTRANSFERASE,[4],89.33 u/L
same,BLOOD UREA NITROGEN,[4],11.67 mg/dL
same,CARBON DIOXIDE,[4],29.33 mmol/L
same,CHLORIDE,[4],101.67 MEQ/L
same,CHOLESTEROL,[4],41.33 mg/dL
same,CREATINE PHOSPHOKINASE,[4],166.67 u/L
same,CREATININE,[4],0.11 mg/dL
same,GLUCOSE,[4],117.33 mg/dL
same,LACTATE DEHYDROGENASE,[4],105.33 u/L
same,LIPASE,[4],7 u/L
same,PHOSPHORUS,[4],10.93 mg/dL
same,POTASSIUM,[4],6.02 MEQ/L
same,SODIUM,[4],143.77 MEQ/L
same,TOTAL BILIRUBIN,[4],0.1 mg/dL
same,TOTAL PROTEIN,[4],5.3 G/DL
same,URIC ACID,[4],1.83 mg/dL

# — ChEMBL document CHEMBL3885881, “DrugMatrix”
